We go through 1 substance from article PMC5870190, “A three-in-one-bullet for oesophageal cancer: replication fork collapse, spindle attachment failure and enhanced radiosensitivity generated by a ruthenium(II) metallo-intercalator” (Chemical Science, 2017).

The test system of one data set is OE21 cells. Description: Quantification of aberrant mitoses (CLSM). The format is cell-based, human. Particulars: OE21, IC50 concentration, 24 h. As for the experimental part: (§1) Microscopy and immunofluorescence. Cells were seeded on ibidi 35 mm µ-dishes (Thistle Scientific), allowed to adhere for 24 h and treated as stated in the main text. Cell media was removed, cells washed with PBS and fixed with formaldehyde (4%, 10 mins). Cells were permeablised with Triton (0.5% in PBS, 5 mins) and washed with PBS. Samples were blocked with BSA (3% in PBS-T) for 1 h before incubation with primary antibody (either anti-α-tubulin or anti-γ H2AX, 1/500 dilution) in BSA (3% in PBS-T) for 1 h. Samples were washed 3x in PBS-T and incubated with Alexa Fluor-conjugated secondary antibodies (3% in PBS-T, 1 h, 1/250 dilution). After further washing (3x5 min PBS-T) samples were co-stained with DAPI (5 ng/ml, 2 min), fresh PBS added and visualised by confocal microscopy. Samples were visualised using a Zeiss LSM 780 or LSM 710 inverted confocal microscope and EC Plan-Neofluar 40x/1.30 Oil objectives. […]
(§2) For the determination of mutation induction, from the untreated and each treated condition, 2x10^5 cells were plated in 10 x 100 mm dishes in selective media (regular media

Data set [1] has as its system FLO-1 cells. Description: Clonogenic survival assay with IR, FLO-1. Particulars: Ru1 2 μM or Cis 300 nM for 24 h before IR. Format: cell-based, human. As for the experimental part:
(§3) Clonogenic survival assay. OE21, OE33 or FLO1 cells were treated with 2 µM Ru1 for 24 h before irradiation with 0-8 Gy using a 137Cs γ-irradiator (IBL637, CIS Bio Int.; dose rate = 0.809 Gy min−1). 1 h after irradiation, cells were detached using Trypsin and re-seeded in 6 well plates at a density of 300 – 20,000 cells/well in triplicate in an incrementally greater number of cells with increasing IR dose to ensure adequate colony formation. Cells were incubated for 7–14 days after re-seeding to allow colony formation before being fixed with 10% methanol, 10% acetic acid and stained with 0.4% methylene blue. OE33 cells required an additional formaldehyde fixation (4% in PBS, 5 mins) step before the addition of methylene blue solution or colony detachment occurred. Colonies containing 50 cells or greater were counted using a Gelcount instrument and accompanying software (Oxford Optronix). Plating efficiencies were determined for each treatment condition and normalised to an untreated control to provide the surviving fraction (S. F.). S.F. versus radiation dose curves were plotted in GraphPad Prism and fit using a second order polynomial function (R2 values > 0.99). Dose modifying factors (DMF) at a SF=0.1 were calculated using the equation: Dose modifying factor (DMF) = IR dose to give S.F. 0.1/IR dose plus compound to give S.F.0.1. […]

Data set [2] concerns OE21 human oesophageal squamous cell carcinoma. Description: MTT assay, OE21 cells. The format is cell-based. As to conditions: for IC50: MTT. As for the experimental part: MTT assay. OE21, FLO-1 or hSAEC1-KT cells were seeded in 96 well plates at 20,000 cells/well (for 24 h treatment) or 10,000 cells/well (for 72 h treatment) and allowed to adhere for 24 h before treatment. OE33 cells were seeded in 48 well plates at 40,000 cells/well (24 h treatment) or 20,000 cells/well (72 h treatment). Cancer cell lines were treated with chemicals dissolved in RPMI media for consistency. After incubation, 0.5 mg/ml MTT (thiazolyl blue tetrazolium bromide) dissolved in serum-free medium was added for 60 minutes and the formazan product eluted using acidified isopropanol.
The absorbance at 540 nm was quantified by plate reader (reference wavelength 650 nm). The metabolic activity of the cell population was determined as a percentage of a negative (solvent) control. […]
as §2
A general note: Formazan colour is commonly taken as a measure of viable cells.

The subject of data set [3] is FLO-1 cells. The data set can be described thus: Micronuclei formation, FLO-1. The format is cell-based, human. As to conditions: FLO-1, 44 μM Ru1, 24 h incubation. As for the experimental part:
as §1, §2

The conditions of data set [4]: cited from earlier work.
The next data set relates to MCF7 cells. Description: Micronuclei formation, MCF7. Format: cell-based. Particulars: MCF7, 40 μM Ru1, 24 h incubation. As for the experimental part:
as §1, §2

In the next data set the test system is OE33 cells. Description: Clonogenic survival assay with IR, OE33. The format is cell-based, human. As to conditions: Ru1 2 μM or Cis 500 nM for 24 h before IR. As for the experimental part:
as §3

Regarding [Ru(phen)2(tpphz)]^2+ [Ru1], in the data set on OE21 cells, the “mitotic aberrations, share of total cell population” value was roughly 8%. Moreover, the S.F. in the data set on FLO-1 cells [1] (FLO-1, IR 0 Gy) amounted to 0.873; in the data set with FLO-1 cells [1] (FLO-1, IR 2 Gy) it was 0.188; in the data set with FLO-1 cells [1] (FLO-1, IR 4 Gy), 0.042; with FLO-1 cells [1] (FLO-1, IR 6 Gy), 0.005; with OE33 cells (OE33, IR 0 Gy), 0.956; in the data set on OE33 cells (OE33, IR 2 Gy) it was 0.447. The S.F. with OE33 cells (OE33, IR 4 Gy) is on record as 0.083; with OE33 cells (OE33, IR 6 Gy) it was 0.014; in the data set on OE33 cells (OE33, IR 8 Gy) it was 0.003. Moreover, the IC50 (as a rule, the concentration needed to halve the response being measured) in data set [2] (OE21, 24 h constant exposure) was 21 ± 4.2 µM; in data set [2] (OE21, 72 h constant exposure) it was 2.9 ± 1.5 µM. Also, the “greater potency than cisplatin” value in data set [2] (OE21, 72 h incubation) is “two-fold”. The figures for the “Cells with micronuclei, Percentage” value in the data set on FLO-1 cells [3] and in the data set on MCF7 cells were 3.3% and 6.2%, respectively. For the same substance, in data set [4], the “log P” value is reported as “–1.24”.
